Values quoted from earlier work in patent publication US20090023643A1, “Methods For Treating Acute Myocardial Infarction By Administering Calcitonin Gene Related Peptide And Compositions Containing The Same” (VasoGenix Pharmaceuticals, Inc., priority 2004, published 2009).

Experiments:
IL-10 = conditions: Torii et al 1997
[1] = tested on: IGF-1 (insulin-like growth factor-1); conditions: R. Zfoncea et al 1997
IL-12 = conditions: Torii et al 1997
IL-16 = conditions: Dunzendorfer et al 2002-2003
IL-7 = conditions: Fernandez et al 2000
IL-1β = conditions: Torii et al 1997
TNF-α = conditions: lipopolysaccharide induced, macrophages; Feng et al 1997
B7-2 = conditions: Ashana et al 1995; Torii et al 1997

CGRP
CGRP activity: induced anti-inflammatory cytokines, IL-10; benefits (IL-10): Inhibits monocyte inflammation
expression of IGF-1 [1]: increases expression of IGF-1
CGRP activity: cytokines inhibited or suppressed, IL-12; benefits (IL-12): Suppresses Natural Killer Cell Stimulating factor (NKSF)
CGRP activity: cytokines inhibited or suppressed, IL-16; benefits (IL-16): Inhibits macrophage chemotaxis
CGRP activity: cytokines inhibited or suppressed, IL-7; benefits (IL-7): Inhibits pre B-cell development and T-cell development
CGRP activity: cytokines inhibited or suppressed, IL-1β; benefits (IL-1β): Inhibits proliferation of T-cells
CGRP activity: cytokines inhibited or suppressed, TNF-α; benefits (TNF-α): Inhibits lipopolysaccharide induced TNF-α in macrophages
CGRP activity: cytokines inhibited or suppressed, B7-2; benefits (B7-2): Inhibits Granulocyte-Macrophage Colony
